5 compounds from patent publication US20250195536A1, “BICYCLOOCTANE KRAS INHIBITORS” (Incyte Corporation, priority 2023, published 2025) can be followed below.

The term Papp A→B denotes how fast a substance crosses the layer from the apical side. High values mean fast passage, low ones slow passage.

In one data set the target is KRAS G12D (Homo sapiens, UniProt P01116, G12D). In words: GDP-GTP exchange assay (KRAS G12D).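 Also: one dagger IC50 up to 100 nM and two daggers above 100 nM up to 1 μM.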 It counts as biochemical. Conditions: bodipy-GDP/GppNHp exchange with SOS1; 4 h pre-incubation, 2 h reaction. On the procedure: (§1) The inhibitor potency of the exemplified compounds was determined in a fluorescence based guanine nucleotide exchange assay, which measures the exchange of bodipy-GDP (fluorescently labeled GDP) for GppNHp (Non-hydrolyzable GTP analog) to generate the active state of KRAS in the presence of SOS1 (guanine nucleotide exchange factor). Inhibitors were serially diluted in DMSO and a volume of 0.1 μL was transferred to the wells of a black low volume 384-well plate. 5 μL/well volume of bodipy-loaded KRAS G12D diluted to 2.5 nM in assay buffer (25 mM Hepes pH 7.5, 50 mM NaCl, 10 mM MgCl2 and 0.01% Brij-35) was added to the plate and pre-incubated with inhibitor for 4 h at r.t. Appropriate controls (enzyme with no inhibitor or with a G12D inhibitor) were included on the plate. The exchange was initiated by the addition of a 5 μL/well volume containing 1 mM GppNHp and 300 nM SOS1 in assay buffer. The 10 μL/well reaction concentration of the bodipy-loaded KRAS G12D, GppNHp, and SOS1 were 2.5 nM, 500 μM, and 150 nM, respectively. The reaction plates were incubated at r.t. for 2 h, a time estimated for complete GDP-GTP exchange in the absence of inhibitor. For the KRAS G12V mutant, similar guanine nucleotide exchange assays were used with 2.5 nM as final concentration for the bodipy loaded KRAS proteins and 3 h incubation after adding GppNHp-SOS1 mixture. A cyclic peptide described to selectively bind G12D mutant (Sakamoto et al., BBRC 484.3 (2017), 605-611) or internal compounds with confirmed binding were used as positive controls in the assay plates. Fluorescence intensities were measured on a PheraStar plate reader instrument (BMG Labtech) with excitation at 485 nm and emission at 520 nm.
(§2) Either GraphPad prism or Genedata Screener SmartFit was used to analyze the data. The IC50 values were derived by fitting the data to a four parameter logistic equation producing a sigmoidal dose-response curve with a variable Hill coefficient.
(§3) The symbol “⬆” indicates IC50 100 nM, “⬆⬆” indicates IC50 >100 nM but ≤1 μM; and “⬆⬆⬆” indicates IC50 is >1 μM but ≤5 μM, “⬆⬆⬆⬆” indicates IC50 is >5 μM but ≤10 μM. “NA” indicates IC50 not available.

The target in a further data set is KRAS G12V (Homo sapiens, UniProt P01116, G12V). Nature of the data set: GDP-GTP exchange assay (KRAS G12V).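 Also: one dagger IC50 up to 100 nM and two daggers above 100 nM up to 1 μM.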 It counts as biochemical. Particulars: bodipy-GDP/GppNHp exchange with SOS1; 3 h incubation after GppNHp-SOS1. The procedure: as §1, §2, §3
The nature of data set [1]: Caco2 assay (permeability, Papp A-B). Conditions: human, Caco-2, absorptive direction (A-B), 50 μM test compound, 4% BSA in receiver. It counts as in vitro ADME. On the procedure:
Caco-2 cells are grown at 37° C. in an atmosphere of 5% CO2 in DMEM growth medium supplemented with 10% (v/v) fetal bovine serum, 1% (v/v) nonessential amino acids, penicillin (100 U/mL), and streptomycin (100 μg/mL). Confluent cell monolayers are subcultured every 7 days or 4 days for Caco-2 by treatment with 0.05% trypsin containing […]. Caco-2 cells are seeded in 96-well Transwell plates. The seeding density for Caco-2 cells is 14,000 cells/well. DMEM growth medium is replaced every other day after seeding. Cell monolayers are used for transport assays between 22 and 25 days for Caco-2 cells.
Cell culture medium is removed and replaced with HBSS. To measure the TEER, the HBSS is added into the donor compartment (apical side) and receiver compartment (basolateral side). The TEER is measured by using a REMS Autosampler to ensure the integrity of the cell monolayers. Caco-2 cell monolayers with TEER values 300 Ω·cm^2 are used for transport experiments. To determine the Papp in the absorptive direction (A-B), solution of test compound (50 μM) in HBSS is added to the donor compartment (apical side), while HBSS solution with 4% BSA is added to the receiver compartment (basolateral side). The apical volume was 0.075 mL, and the basolateral volume is 0.25 mL. The incubation period is 120 min. at 37° C. in an atmosphere of 5% CO2. At the end of the incubation period, samples from the donor and receiver sides are removed and an equal volume of MeCN is added for protein precipitation. The supernatants are collected after centrifugation (3000 rpm, Allegra X-14R Centrifuge from Beckman Coulter, Indianapolis, IN) for LCMS analysis. The permeability value is determined according to the equation:
Papp(cm/s)=(F*VD)/(SA*MD),
where the flux rate (F, mass/time) is calc. from the slope of cumulative amounts of compound of interest on the receiver side, SA is the surface area of the cell membrane, VD is the donor volume, and MD is the initial amount of the solution in the donor chamber.
The symbol “+” indicates a Caco-2 value of ≤0.5, “++” indicates a Caco-2 value of >0.5 but ≤1; and “+++” indicates a Caco-2 value of >1. “NA” indicates Caco-2 value not available.

KRAS G12V, sequence (P01116 1-188 isoform P01116-2 G12V): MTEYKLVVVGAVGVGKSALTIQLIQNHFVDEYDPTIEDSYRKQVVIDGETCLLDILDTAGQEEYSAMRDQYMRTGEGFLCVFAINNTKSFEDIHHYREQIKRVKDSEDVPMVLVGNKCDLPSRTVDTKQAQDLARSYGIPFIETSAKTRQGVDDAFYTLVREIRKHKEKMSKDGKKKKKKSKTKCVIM
KRAS G12D, sequence (P01116 1-188 isoform P01116-2 G12D): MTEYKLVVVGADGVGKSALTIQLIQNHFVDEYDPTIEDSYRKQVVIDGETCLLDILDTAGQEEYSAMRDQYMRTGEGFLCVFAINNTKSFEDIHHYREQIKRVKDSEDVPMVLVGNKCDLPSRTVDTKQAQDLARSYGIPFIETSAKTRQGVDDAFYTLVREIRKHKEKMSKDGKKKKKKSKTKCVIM

In the case of `Cc1nc2c(F)c(-c3cccc(Cl)c3Cl)c(CCC#N)cc2c2c1cc([C@H]1[C@H]3C[C@H](CN(c4ccccc4)C3)N1C(=O)C1CC1)n2[C@H]1[C@H]2CN[C@@H]1C2` (atropisomer, axis not shown; (Ra)) [Example 1, 3-((Ra)-1-((1R,4R,5S)-2-Azabicyclo[2.1.1]hexan-5-yl)-2-((1 S,5R,7R)-6-(cyclopropanecarbonyl)-3-phenyl-3,6-diazabicyclo[3.2.1]octan-7-yl)-7-(2,3-dichlorophenyl)-6-fluoro-4-methyl-1H-pyrrolo[3,2-c]quinolin-8-yl)propanenitrile], the “G12D_exchange (KRAS_G12D exchange assay IC50)” value on KRAS G12D is recorded as “††”. On KRAS G12V, the “G12V_exchange (KRAS_G12V exchange assay IC50)” value (from here on “G12V_exchange”) was “†”. The apparent permeability from apical to basolateral (Papp A→B) at 120 min, 50 μM in data set [1] is ≤ 0.5 ×10⁻⁶ cm/s.
For `Cc1nc2c(F)c(-c3cccc(Cl)c3Cl)c(CCC#N)cc2c2c1cc([C@H]1[C@H]3C[C@H](CN(c4ccccc4F)C3)N1C(=O)C1CC1)n2[C@H]1[C@H]2CN[C@@H]1C2` (atropisomer, axis not shown; (Ra)) [Example 2, 3-((Ra)-1-((1R,4R,5S)-2-Azabicyclo[2.1.1]hexan-5-yl)-2-((1 S,5R,7R)-6-(cyclopropanecarbonyl)-3-(2-fluorophenyl)-3,6-diazabicyclo[3.2.1]octan-7-yl)-7-(2,3-dichlorophenyl)-6-fluoro-4-methyl-1H-pyrrolo[3,2-c]quinolin-8-yl)propanenitrile] the same measures were “†”, “†” and ≤ 0.5 ×10⁻⁶ cm/s.
Regarding `COC(=O)N1[C@@H]2C[C@@H](CN(c3ncc(OCC4CC4)cn3)C2)[C@@H]1c1cc2c(C)nc3c(F)c(-c4cccc(Cl)c4Cl)c(CCC#N)cc3c2n1[C@H]1[C@H]2CN[C@@H]1C2` (atropisomer, axis not shown; (Ra)) [Example 126, Methyl (1 S,5R,7R)-7-((Ra)-1-((1R,4R,5S)-2-azabicyclo[2.1.1]hexan-5-yl)-8-(2-cyanoethyl)-7-(2,3-dichlorophenyl)-6-fluoro-4-methyl-1H-pyrrolo[3,2-c]quinolin-2-yl)-3-(5-(cyclopropylmethoxy)pyrimidin-2-yl)-3,6-diazabicyclo[3.2.1]octane-6-carboxylate], the “G12V_exchange” value at KRAS G12V is “†”. The Papp A→B at 120 min, 50 μM in data set [1] was ≤ 0.5 ×10⁻⁶ cm/s.
For `COC(=O)N1[C@@H]2C[C@@H](CN(c3cnc(C#N)cn3)C2)[C@@H]1c1cc2c(C)nc3c(F)c(-c4cccc(Cl)c4Cl)c(CCC#N)cc3c2n1[C@H]1[C@H]2CN[C@@H]1C2` (atropisomer, axis not shown; (Ra)) [Example 127, Methyl (1 S,5R,7R)-7-((Ra)-1-((1R,4R,5S)-2-azabicyclo[2.1.1]hexan-5-yl)-8-(2-cyanoethyl)-7-(2,3-dichlorophenyl)-6-fluoro-4-methyl-1H-pyrrolo[3,2-c]quinolin-2-yl)-3-(5-cyanopyrazin-2-yl)-3,6-diazabicyclo[3.2.1]octane-6-carboxylate], the “G12V_exchange” value on KRAS G12V is “†”. For the same compound, the Papp A→B at 120 min, 50 μM in data set [1] is ≤ 0.5 ×10⁻⁶ cm/s.
For `Cc1nc2c(F)c(-c3cccc(Cl)c3Cl)c(CCC#N)cc2c2c1cc([C@H]1[C@H]3C[C@H](CN(c4cc(C(C)(F)F)ncn4)C3)N1C(=O)C1(F)CC1)n2[C@H]1[C@H]2CN[C@@H]1C2` (atropisomer, axis not shown; (Ra)) [Example 128, 3-((Ra)-1-((1R,4R,5S)-2-azabicyclo[2.1.1]hexan-5-yl)-7-(2,3-dichlorophenyl)-2-((1S,5R,7R)-3-(6-(1,1-difluoroethyl)pyrimidin-4-yl)-6-(1-fluorocyclopropane-1-carbonyl)-3,6-diazabicyclo[3.2.1]octan-7-yl)-6-fluoro-4-methyl-1H-pyrrolo[3,2-c]quinolin-8-yl)propanenitrile] the same measures were “†” and ≤ 0.5 ×10⁻⁶ cm/s.
